Values quoted from earlier work as cited in patent publication US20200254013A1, “COMPOSITIONS COMPRISING ALPHA-POLYGLUTAMIC ACID-ZINC FOR TREATING CANCER” (XYLONIX IP HOLDINGS PTE. LTD., priority 2017, published 2020).

How the values were obtained:
[1] = tested on: folate receptor (FR), FR-α and FR-β
[2] = tested on: LNCaP, PC3, DU145 prostate cancer cell lines; details: 1-10 μM
[3] = tested on: murine thymocytes, murine splenic lymphocytes, human Ramos B, and human Jurkat T cells; details: nanomolar concentrations
[4] = dietary administration 240 ppm, after 9-14 days

| affinity for FR-α versus FR-β [1] | Molecule | ATP-depletion and necrosis in prostate cancer cell lines [2] | apoptosis in leukocyte-originating cells [3] | neurological toxicity in rats [4] |
| --- | --- | --- | --- | --- |
| higher affinity for FR-α over FR-β | CN(CC1CNc2nc(N)[nH]c(=O)c2N1C)c1ccc(C(=O)N[C@@H](CCC(=O)O)C(=O)O)cc1 (stereo partly shown) [DMTHF, N^5, N^10-dimethyl tetrahydrofolate] |  |  |  |
|  | zinc pyrithione | elicited ATP-depletion and, eventually, ERK and PKC-dependent necrosis | induced zinc-specific apoptosis | acute neurological toxicity |
